Measurements reported in patent US10550093B2, “Third generation taxoids and methods of using same” (The Research Foundation for the State University of New York, priority 2015, dated 2020).

Tests used:
Format in all cases: cell-based
[1] = system: LCC6-MDR drug resistant (Pgp+) human breast cancer cell line; test: Cytotoxicity of third-generation taxoids, LCC6-MDR; conditions: LCC6-MDR cells
[2] = system: CFPAC-1 human pancreatic cancer cell line; test: Cytotoxicity of third-generation taxoids, CFPAC-1; conditions: CFPAC-1 cells
[3] = system: ID8 murine ovarian cancer cell line; test: Cytotoxicity of third-generation taxoids, ID8; conditions: ID8 cells
[4] = system: PANC-1 human pancreatic cancer cell line; test: Cytotoxicity of third-generation taxoids, PANC-1; conditions: PANC-1 cells
[5] = system: MCF7 human breast cancer cell line; test: Cytotoxicity of third-generation taxoids, MCF7; conditions: MCF7 cells
[6] = system: LCC6-WT; test: Cytotoxicity of third-generation taxoids, LCC6-WT; conditions: LCC6-WT cells
[7] = system: NCI/ADR drug resistant (Pgp+) human ovarian cancer cell line; test: Cytotoxicity of third-generation taxoids, NCI/ADR; conditions: NCI/ADR-RES, NCI/ADR cells

| Structure (SMILES) | IC50 [5] [pM] | IC50 [2] [pM] | IC50 [4] [pM] | IC50 [6] [pM] | other results |
| --- | --- | --- | --- | --- | --- |
| CC(=O)O[C@@]12CO[C@@H]1C[C@H](O)[C@@]1(C)C(=O)[C@H](OC(=O)C3CC3)C3=C(C)[C@@H](OC(=O)[C@H](O)[C@H](CC(C)C)NC(=O)OC(C)(C)C)C[C@@](O)([C@@H](OC(=O)c4cccc(OC(F)(F)F)c4)[C@H]21)C3(C)C [SB-T-111405, 2-Debenzoyl-2-(3-trifluromethoxybenzoyl)-3′-dephenyl-10-(cyclopropanecarbonyl)-3′-(2-methylpropyl)docetaxel] |  |  |  |  | IC50 ([1]; Homo sapiens, LCC6MDR): 980 pM; IC50 ([2]; Homo sapiens): 2300 pM; IC50 ([3]; Mus musculus): 280 pM; IC50 ([4]; Homo sapiens): 560 pM |
| C=C(C)CC(NC(=O)OC(C)(C)C)C(O)C(=O)OC1CC2(O)C(OC(=O)c3cccc(OC(F)(F)F)c3)C3C4(OC(C)=O)COC4CC(O)C3(C)C(=O)C(OC(C)=O)C(=C1C)C2(C)C (stereo not shown) [SB-T-121205, 2-Debenzoyl-2-(3-trifluromethoxybenzoyl)-3′-dephenyl-10-acetyl-3′-(2-methyl-2-propenyl)docetaxel] | 230 | 400 | 760 | 450 | IC50 [3]: 230 pM |
| C=C(C)CC(NC(=O)OC(C)(C)C)C(O)C(=O)OC1CC2(O)C(OC(=O)c3cccc(OC(F)F)c3)C3C4(OC(C)=O)COC4CC(O)C3(C)C(=O)C(OC(C)=O)C(=C1C)C2(C)C (stereo not shown) [SB-T-121206, 2-Debenzoyl-2-(3-difluromethoxybenzoyl)-3′-dephenyl-10-acetyl-3′-(2-methyl-2-propenyl)docetaxel] | 310 | 230 | 490 | 280 | IC50 [3]: 350 pM |
| C=C(C)CC(NC(=O)OC(C)(C)C)C(O)C(=O)OC1CC2(O)C(OC(=O)c3cccc(OC(F)(F)F)c3)C3C4(OC(C)=O)COC4CC(O)C3(C)C(=O)C(OC(=O)CC)C(=C1C)C2(C)C (stereo not shown) [SB-T-121305, 2-Debenzoyl-2-(3-trifluromethoxybenzoyl)-3′-dephenyl-10-propanoyl-3′-(2-methyl-2-propenyl)-docetaxel] | 1740 | 1750 | 1120 | 1540 |  |
| C=C(C)C[C@H](NC(=O)OC(C)(C)C)[C@@H](O)C(=O)O[C@H]1C[C@@]2(O)[C@@H](OC(=O)c3cccc(OC(F)F)c3)[C@@H]3[C@]4(OC(C)=O)CO[C@@H]4C[C@H](O)[C@@]3(C)C(=O)[C@H](OC(=O)CC)C(=C1C)C2(C)C [SB-T-121306, 2-Debenzoyl-2-(3-difluromethoxybenzoyl)-3′-dephenyl-10-propanoyl-3′-(2-methyl-2-propenyl)docetaxel] | 540 | 170 | 490 | 810 |  |
| CC(=O)O[C@@]12CO[C@@H]1C[C@H](O)[C@@]1(C)C(=O)[C@H](OC(=O)C3CC3)C3=C(C)[C@@H](OC(=O)[C@H](O)[C@H](C=C(C)C)NC(=O)OC(C)(C)C)C[C@@](O)([C@@H](OC(=O)c4cccc(OC(F)(F)F)c4)[C@H]21)C3(C)C [SB-T-121405] |  |  |  | 1010 | IC50 ([5]; Homo sapiens): 980 pM; IC50 ([2]; Homo sapiens): 360 pM; IC50 ([3]; Mus musculus): 330 pM; IC50 ([4]; Homo sapiens): 320 pM |
| C=C(C)CC(NC(=O)OC(C)(C)C)C(O)C(=O)OC1CC2(O)C(OC(=O)c3cccc(OC(F)F)c3)C3C4(OC(C)=O)COC4CC(O)C3(C)C(=O)C(OC(=O)C3CC3)C(=C1C)C2(C)C (stereo not shown) [SB-T-121406, 2-Debenzoyl-2-(3-difluromethoxybenzoyl)-3′-dephenyl-10-cyclopropanecarbonyl-3′-(2-methyl-2-propenyl)docetaxel] | 290 | 310 | 750 | 330 |  |
| C=C(C)CC(NC(=O)OC(C)(C)C)C(O)C(=O)OC1CC2(O)C(OC(=O)c3cccc(OC(F)(F)F)c3)C3C4(OC(C)=O)COC4CC(O)C3(C)C(=O)C(OC(=O)N(C)C)C(=C1C)C2(C)C (stereo not shown) [SB-T-121605, 2-Debenzoyl-2-(3-trifluromethoxybenzoyl)-3′-dephenyl-10-(N,N-dimethylcarbamoyl)-3′-(2-methyl-2-propenyl)docetaxel] |  | 560 | 540 |  | IC50 [3]: 250 pM |
| C=C(C)CC(NC(=O)OC(C)(C)C)C(O)C(=O)OC1CC2(O)C(OC(=O)c3cccc(OC(F)(F)F)c3)C3C4(OC(C)=O)COC4CC(O)C3(C)C(=O)C(OC(=O)OC)C(=C1C)C2(C)C (stereo not shown) [SB-T-121705, 2-Debenzoyl-2-(3-trifluromethoxybenzoyl)-3′-dephenyl-10-(methoxycarbonyl)-3′-(2-methyl-2-propenyl)docetaxel] | 980 | 800 | 1170 | 590 |  |
| C=C(C)CC(NC(=O)OC(C)(C)C)C(O)C(=O)OC1CC2(O)C(OC(=O)c3cccc(OC(F)F)c3)C3C4(OC(C)=O)COC4CC(O)C3(C)C(=O)C(OC(=O)OC)C(=C1C)C2(C)C (stereo not shown) [SB-T-121706] | 120 | 150 | 1060 | 460 |  |
| C=C(C)CC(NC(=O)OC(C)(C)C)C(O)C(=O)OC1CC2(O)C(OC(=O)c3cccc(OC(F)(F)F)c3)C3C4(OC(C)=O)COC4CC(O)C3(C)C(=O)C(OC)C(=C1C)C2(C)C (stereo not shown) [SB-T-123005, 2-Debenzoyl-2-(3-trifluromethoxybenzoyl)-10-methyl-3′-dephenyl-3′-(2-methyl-2-propenyl)-docetaxel] | 2460 | 7300 | 870 |  | IC50 [3]: 1430 pM |
| C=C(C)CC(NC(=O)OC(C)(C)C)C(O)C(=O)OC1CC2(O)C(OC(=O)c3cccc(OC(F)(F)F)c3)C3C4(OC(C)=O)COC4CC(OC)C3(C)C(=O)C(OC)C(=C1C)C2(C)C (stereo not shown) [SB-T-1230105, 2-Debenzoyl-2-(3-trifluromethoxybenzoyl)-7,10-dimethyl-3′-dephenyl-3′-(2-methyl-2-propenyl)-docetaxel] |  |  | 980 | 550 | IC50 [1]: 6980 pM |
| C=C(C)CC(NC(=O)OC(C)(C)C)C(O)C(=O)OC1CC2(O)C(OC(=O)c3cccc(OC(F)F)c3)C3C4(OC(C)=O)COC4CC(OC)C3(C)C(=O)C(OC)C(=C1C)C2(C)C (stereo not shown) [SB-T-1230106, 2-Debenzoyl-2-(3-difluromethoxybenzoyl)-7,10-dimethyl-3′-dephenyl-3′-(2-methyl-2-propenyl)-docetaxel] |  |  |  | 720 | IC50 [1]: 4700 pM |
| CC(=O)O[C@H]1C(=O)[C@@]2(C)[C@H]([C@H](OC(=O)c3ccccc3)[C@]3(O)C[C@H](OC(=O)[C@H](O)[C@@H](NC(=O)c4ccccc4)c4ccccc4)C(C)=C1C3(C)C)[C@]1(OC(C)=O)CO[C@@H]1C[C@@H]2O [paclitaxel, reference compound] |  |  |  | 3100 | IC50 ([1]; Homo sapiens, LCC6MDR): 346000 pM; IC50 [7]: 361000 pM; IC50 ([5]; Homo sapiens): 3130 pM; IC50 ([2]; Homo sapiens): 68000 pM; IC50 ([3]; Mus musculus): 2020 pM; IC50 ([4]; Homo sapiens): 3780 pM |
